Converted amounts (≈) assume the structure as drawn.
What was measured:
[1] = system: Staphylococcus aureus 209P JC-1; test: Antibacterial Activity (in medicinal field), MIC; assay type: cell-based; conditions: Staphylococcus aureus, 209P, read-out: Minimal Inhibitory Conc. (MIC)
[2] = system: Staphylococcus epidermidis ATCC 14990; test: Antibacterial Activity (in medicinal field), MIC; assay type: cell-based; conditions: Staphylococcus epidermidis, ATCC14990, read-out: Minimal Inhibitory Conc. (MIC)
[3] = system: Staphylococcus faecalis ATCC 8043; test: Antibacterial Activity (in medicinal field), MIC; assay type: cell-based; conditions: ATCC8043, read-out: Minimal Inhibitory Conc. (MIC)
[4] = system: Escherichia coli NIHJ JC-2; test: Antibacterial Activity (in medicinal field), MIC; assay type: cell-based; conditions: NIHJJC2, read-out: Minimal Inhibitory Conc. (MIC)
[5] = system: Shigella sonnei EW 33 Type I; test: Antibacterial Activity (in medicinal field), MIC; assay type: cell-based; conditions: EW33TYPEI; Shigella sonnei EW 33 Type I; read-out: Minimal Inhibitory Conc. (MIC)
Proteus vulgaris OX-19 = test: Antibacterial Activity (in medicinal field), MIC; assay type: cell-based; conditions: OX19, read-out: Minimal Inhibitory Conc. (MIC)
[6] = system: Serratia marcescens MB-3848; test: Antibacterial Activity (in medicinal field), MIC; assay type: cell-based; conditions: MB3848, read-out: Minimal Inhibitory Conc. (MIC)
[7] = system: Pseudomonas cepacia M-0527; test: Antibacterial Activity (in medicinal field), MIC; assay type: cell-based; conditions: Burkholderia cepacia, M0527, read-out: Minimal Inhibitory Conc. (MIC)
Candida alubicans GA-24 = test: Antifungal Activity (in Medicinal Field), MIC; assay type: cell-based; conditions: GA24; Candida alubicans GA-24; read-out: Minimal Inhibitory Conc. (MIC)
[8] = system: Cryptococcus neoformans Cr-1; test: Antifungal Activity (in Medicinal Field), MIC; assay type: cell-based; conditions: CR1, read-out: Minimal Inhibitory Conc. (MIC)
[9] = system: Trichophyton metagrophytes 530324; test: Antifungal Activity (in Medicinal Field), MIC; assay type: cell-based; conditions: Trichophyton metagrophytes 530324; read-out: Minimal Inhibitory Conc. (MIC)
[10] = system: Trichophyton interdigitale; test: Antifungal Activity (in Medicinal Field), MIC; assay type: cell-based; conditions: read-out: Minimal Inhibitory Conc. (MIC)
[11] = system: Aspergillus fumigatus Saito; test: Antifungal Activity (in Medicinal Field), MIC; assay type: cell-based; conditions: read-out: Minimal Inhibitory Conc. (MIC)
[12] = system: Aspergillus flavus ATCC 6275; test: Antifungal Activity (in Industrial Field), MIC; assay type: cell-based; conditions: ATCC6275, read-out: Minimal Inhibitory Conc. (MIC)
[13] = system: Aspergillus terreus PQMD 82 j; test: Antifungal Activity (in Industrial Field), MIC; assay type: cell-based; conditions: PQMD82J, read-out: Minimal Inhibitory Conc. (MIC)
[14] = system: Penicillium luteum ATCC 9644; test: Antifungal Activity (in Industrial Field), MIC; assay type: cell-based; conditions: Ascospirella lutea, ATCC9644, read-out: Minimal Inhibitory Conc. (MIC)
Mucor spinescens IAM Mu3 = test: Antifungal Activity (in Industrial Field), MIC; assay type: cell-based; conditions: IAMMU3, read-out: Minimal Inhibitory Conc. (MIC)
[15] = system: Cladosporium herbarum IAM F-517; test: Antifungal Activity (in Industrial Field), MIC; assay type: cell-based; conditions: IAMF517, read-out: Minimal Inhibitory Conc. (MIC)
[16] = system: Pullularia pullulans IAM F-24; test: Antifungal Activity (in Industrial Field), MIC; assay type: cell-based; conditions: IAMF24; Pullularia pullulans IAM F-24; read-out: Minimal Inhibitory Conc. (MIC)
[17] = system: Trichoderma T-1 ATCC 9645; test: Antifungal Activity (in Industrial Field), MIC; assay type: cell-based; conditions: ATCC9645, read-out: Minimal Inhibitory Conc. (MIC)
[18] = system: Chaetomium globosum ATCC 6205; test: Antifungal Activity (in Industrial Field), MIC; assay type: cell-based; conditions: ATCC6205, read-out: Minimal Inhibitory Conc. (MIC)
[19] = system: Aspergillus fumigatus IAM 2621; test: Antifungal Activity (in Industrial Field), MIC; assay type: cell-based; conditions: IAM2621, read-out: Minimal Inhibitory Conc. (MIC)
[20] = system: Xanthomonas campestris pv. oryzae; test: microbe, parasite or virus in culture; assay type: cell-based; conditions: read-out: Minimal Inhibitory Conc. (MIC)
[21] = system: Xanthomonas campestris pv. citri; test: Antibacterial and Antifungal Activities (in Agricultural Field), MIC; assay type: cell-based; conditions: read-out: Minimal Inhibitory Conc. (MIC)
[22] = system: Pseudomonas syringae pv. tabaci; test: as above; assay type: cell-based; conditions: read-out: Minimal Inhibitory Conc. (MIC)
Erwinia carotovora = test: as above; assay type: cell-based; conditions: Pectobacterium carotovorum, read-out: Minimal Inhibitory Conc. (MIC)
[23] = system: Corynebacterium michiganense; test: as above; assay type: cell-based; conditions: Clavibacter michiganensis, read-out: Minimal Inhibitory Conc. (MIC)
Phricularia oryzae = test: as above; assay type: cell-based; conditions: read-out: Minimal Inhibitory Conc. (MIC)
Diaporithe citri = test: as above; assay type: cell-based; conditions: read-out: Minimal Inhibitory Conc. (MIC)
[24] = system: Colletotrichum lagenarium; test: as above; assay type: cell-based; conditions: Colletotrichum orbiculare, read-out: Minimal Inhibitory Conc. (MIC)
Alternaria kikuchiana = test: as above; assay type: cell-based; conditions: read-out: Minimal Inhibitory Conc. (MIC)
Glomerella cingulata = test: as above; assay type: cell-based; conditions: Colletotrichum gloeosporioides, read-out: Minimal Inhibitory Conc. (MIC)
Botrytis cinerea = test: as above; assay type: cell-based; conditions: read-out: Minimal Inhibitory Conc. (MIC)
[25] = system: Fusarium oxysporum f. lycopersici; test: as above; assay type: cell-based; conditions: read-out: Minimal Inhibitory Conc. (MIC)
Gibberella fujikuroi = test: as above; assay type: cell-based; conditions: Fusarium fujikuroi, read-out: Minimal Inhibitory Conc. (MIC)
Cochliobolus miyabeanus = test: as above; assay type: cell-based; conditions: Bipolaris oryzae, read-out: Minimal Inhibitory Conc. (MIC)
Pellicularia filamentosa = test: as above; assay type: cell-based; conditions: read-out: Minimal Inhibitory Conc. (MIC)
[26] = system: Trichophyton mentagrophytes; test: Therapeutic experiment on trichophytosis in guinea pigs, visual observation; assay type: in vivo, guinea pigs (White Hartly-strain); conditions: 1% preparation, 0.25 ml once per day, 8 consecutive days
[27] = system: Trichophyton mentagrophytes; test: Reducing culture positive rate of skin slices from infected guinea pigs; assay type: in vivo, guinea pigs (White Hartly-strain); design: concentration or dose not given beside the values; conditions: after 8 days application, non-treated 100

O=[N+]([O-])c1cn(CC(I)=C(I)I)c(Cl)c1Cl [1-(2',3',3'-triiodoallyl)-2,3-dichloro-4-nitropyrrole]
MIC [1]: 31.2 µg/mL (≈ 52.1 µM) | MIC [2]: 31.2 µg/mL (≈ 52.1 µM) | MIC [3]: 31.2 µg/mL (≈ 52.1 µM) | MIC [4]: 12.5 µg/mL (≈ 20.9 µM) | MIC [5]: 6.25 µg/mL (≈ 10.4 µM) | MIC (Proteus vulgaris OX-19): 6.25 µg/mL (≈ 10.4 µM) | MIC [6]: 6.25 µg/mL (≈ 10.4 µM) | MIC [7]: 6.25 µg/mL (≈ 10.4 µM) | MIC (Candida alubicans GA-24): 0.39 µg/mL (≈ 0.651 µM) | MIC [8]: 0.19 µg/mL (≈ 0.317 µM) | MIC [9]: 0.19 µg/mL (≈ 0.317 µM) | MIC [10]: 1.56 µg/mL (≈ 2.61 µM) | MIC [11]: 0.19 µg/mL (≈ 0.317 µM) | MIC [12]: 0.78 µg/mL (≈ 1.3 µM) | MIC [13]: 1.56 µg/mL (≈ 2.61 µM) | MIC [14]: 6.25 µg/mL (≈ 10.4 µM) | MIC (Mucor spinescens IAM Mu3): > 50 µg/mL | MIC [15]: 0.2 µg/mL (≈ 0.334 µM) | MIC [16]: > 50 µg/mL | MIC [17]: 6.25 µg/mL (≈ 10.4 µM) | MIC [18]: 50 µg/mL (≈ 83.5 µM) | MIC [19]: 25 µg/mL (≈ 41.8 µM) | MIC [20]: > 50 µg/mL | MIC [21]: > 50 µg/mL | MIC [22]: > 50 µg/mL | MIC (Erwinia carotovora): > 50 µg/mL | MIC [23]: 6.25 µg/mL (≈ 10.4 µM) | MIC (Phricularia oryzae): 6.25 µg/mL (≈ 10.4 µM) | MIC (Diaporithe citri): 0.78 µg/mL (≈ 1.3 µM) | MIC [24]: 1.56 µg/mL (≈ 2.61 µM) | MIC (Alternaria kikuchiana): 6.25 µg/mL (≈ 10.4 µM) | MIC (Glomerella cingulata): 1.56 µg/mL (≈ 2.61 µM) | MIC (Botrytis cinerea): 12.5 µg/mL (≈ 20.9 µM) | MIC [25]: 6.25 µg/mL (≈ 10.4 µM) | MIC (Gibberella fujikuroi): 3.12 µg/mL (≈ 5.21 µM) | MIC (Cochliobolus miyabeanus): 50 µg/mL (≈ 83.5 µM) | MIC (Pellicularia filamentosa): > 50 µg/mL | Therapeutic Effect: Desquamation [26]: effective | Therapeutic Effect: Thickening [26]: effective | Reducing Culture Positive Rate ([27]; 3 days culture): 0% | Reducing Culture Positive Rate ([27]; 5 days culture): 16.7% | Reducing Culture Positive Rate ([27]; 7 days culture): 16.7%

From US4563472A, “Iodoallyl and iodopropargyl substituted tetrazoles and anti-microbial compositions thereof” (Meiji Seika Kaisha, Ltd., priority 1982, dated 1986)
